Tests used:
[1] = system: wistar rats; experiment: Dexamethasone-induced skeletal muscle atrophy in rats (limb appearance, QRT-PCR of PGC-1α and atrogenes); assay type: in vivo, rat
Experimental: Following 15 d indicated treatment of rats, the skeletal muscle (pulled hind limb) were collected and RNA was extracted from them and QRT-PCR was performed in a Roche lightcycler 480 machine. Data represents mean+/−SEM from six animals done in triplicates. “a” statistical analysis between Vehicle and Dexamethasone-treated groups, “b”, statistical analysis between dex-treated and dex+ ULMA groups. P<0.05, as determined by student's t-test, n=6.
Blood was collected from cardiac punctures.
RNA was isolated from skeletal muscles using Trizol (according to manufacturers' protocol) and reverse transcribed as described above and either PGC-1α expression or muscle atrophy related genes (atrogenes) expression were examined.

[2] = system: C2C12 myotubes; experiment: QRT-PCR of fatty acid transport, oxidation, mitochondrial biogenesis genes in C2C12 myotubes; assay type: cell-based, mouse; settings: 10 nM, 12 or 24 hours
Experimental: A. ULMA induces expression of fatty acid transport, oxidation, mitochondrial biogenesis and energy dissipation related genes. C2C12 myotubes in 6 well plates were treated with 10 nM ULMA or vehicle (designated as 0 h; 0.1% vol/vol DMSO) for 12 h or 24 h. Following treatment, RNA was extracted and 1 μg RNA from each well was used to prepare cDNA and the cDNAs were then used for quantitative real-time PCR for indicated genes. Beta-actin was used as normalizing control. The relative mRNA level was quantitated using ddCT method and plotted as fold activity over vehicle treated control (0 h). Data is mean±SEM of 4-6 independent experiments performed in triplicates. *p<0.05, **p<0.01, ***p<0.001 compared to vehicle (DMSO) treated controls as determined by two tailed unpaired student's t-test.
Adiponectin enhances transcription of genes regulating fatty acid transport, fatty acid-oxidation and mitochondrial uncoupling proteins in skeletal muscle and myotubes (T. Kadowaki, T. Yamauchi, N. Kubota, K. Hara, K. Ueki, K. Tobe. J Clin Invest. 116(7): 1784-92. 2006; S. Dridi, M. Taouis. Journal of Nutritional Biochemistry 20 (2009): 831-839. 2009; M. Iwabu, T. Yamauchi, M. Okada-Iwabu, K. Sato, T. Nakagawa, M. Funata, M. Yamaguchi, S. Namiki, R. Nakayama, M. Tabata, H. Ogata, N. Kubota, I. Takamoto, Y. K. Hayashi, N. Yamauchi, H. Waki, M. Fukayama, I. Nishino, K. Tokuyama, K. Ueki, Y. Oike, S. Ishii, K. Hirose, T. Shimizu, K. Touhara, T. Kadowaki. Nature; 464(7293):1313-1319. 2010). The ability of ULMA to influence expression of these genes were checked in c2c12 myotubes. C2C12 myotubes in 6 well plates were treated with 10 nM ULMA or vehicle (DMSO) for 12 hours or 24 hours. Following treatment, the cells were washed with ice-cold PBS and RNA was extracted using Trizol (Ambion) according to manufacturer's instructions. The RNAs were quantitated using a spectrophotometer (nanophotometer; Implen GMBH) and 1 μg RNA was used to prepare cDNA using a cDNA synthesis kit (Applied Biosystems). cDNAs were then used for quantitative real-time PCR for indicated genes (FIG. 3A) using Veriquest SYBR green QRT-PCR mastermix (US Biologicals) and a Roche lightcycler 480 thermal cycler (Roche Diagnostics). Beta-actin was used as normalizing control. The relative mRNA level was quantitated using ddCT method. […] Adiponectin is also known to induce muscle and adipose glucose transporter 4 (GLUT4) expressions; and the ability of ULMA to induce the expression of GLUT4, PPAR and PGC-1α was investigated by western blotting. C2C12 myotubes in 10 cm dish were treated with vehicle (DMSO) or 10 nM ULMA in DMSO for 24 hours or 48 hours followed by western blotting as described [S. K. Dwivedi, N. Singh, R. Kumari, J. S. Mishra, S. Tripathi, P. Banerjee, P. Shah, V. Kukshal, A. M. Tyagi, A. N. Gaikwad, R. K. Chaturvedi, D. P. Mishra, A. K. Trivedi, S. Sanyal, N. Chattopadhyay, R. Ramachandran, M. I. Siddiqi, A. Bandyopadhyay, A. Arora, T. Lundasen, S. P. Anakk, D. D. Moore, S. Sanyal. Mol Endocrinol. 25(6): 922-932. 2011).

For `O=C1c2c(cc(O)c([C@@H]3O[C@H](CO)[C@@H](O)[C@H](O)[C@H]3O)c2O)O[C@@H](c2ccc(O)c(O)c2)[C@@H]1O` [ULMA, (2S,3S)-(+)-3′,4′,5,7-tetrahydroxydihydroflavonol-6-C-β-D-glucopyranoside], the “Dex-caused reduction of skeletal muscle PGC-1α level” value ([1]; Dex + ULMA) was “protected”, the “protection against induction of atrogenes by dexamethasone” value ([1]; Dex + ULMA) was “completely protected” and the “skeletal muscle PGC-1α expression” value ([1]; ULMA alone) was “robust induction”. The Dex-induced limb abnormality ([1]; ULMA co-treatment with Dex) was “prevented it”, the “ACOX1 mRNA expression” value [2] was “enhanced expressions” and the “CD36 mRNA expression” value [2] was “induced expression”. The “CPT1B mRNA expression” value [2] was “enhanced expressions”, the “FABP3 mRNA expression” value [2] was “induced expression” and the “PGC-1α mRNA expression” value [2] was “induced expression”. For the same compound, the “PPARα mRNA expression” value [2] was “induced expression”, the “fatty acyl CoA synthetase mRNA expression” value [2] was “enhanced expressions” and the “uncoupling protein 2 mRNA expression” value [2] was “induced expressions”. For the same compound, the “uncoupling protein 3 mRNA expression” value [2] was “induced expressions”.

From patent US20160193240A1, “Ulmoside-A: Useful For Prevention Or Cure Of Metabolic Diseases” (COUNCIL OF SCIENTIFIC & INDUSTRIAL RESEARCH, priority 2013, published 2016)
